# Test results taken from article PMC11621054, “Biological evaluation of semi-synthetic isoindolinone isomers produced by Stachybotrys chartarum” (Frontiers in Fungal Biology, 2024).
# Entries after “also recorded” stand apart in the source; their conditions may differ.
# What was measured:
# [1] = test system: Human liver carcinoma cells (HepG2, HB-8065); conditions: HepG2, 24 h incubation, resazurin
# human factor XIa = molecular target: T1, human factor XIa (Homo sapiens, UniProt P03951); assay: Serine protease inhibition assay, fluorogenic substrate, FXIa; format: biochemical; conditions: endpoint RFU after 1 h, 25 °C
# T1 construct: human factor XIa, HFXIA, >95% purity; Molecular Innovations; purchased Molecular Innovations HFXIA
# Description: (§1) The inhibitory activity of further semi-synthesized compounds toward the coagulation factor XIIa, thrombin, FXIa, FXa, and trypsin was measured by quantifying the hydrolysis rate of the fluorogenic substrates as reported previously ([Korff et al., 2020]; [Platte et al., 2021]; [Imberg et al., 2022]). Briefly, the activity was tested in buffer (10 mM Tris-Cl, 150 mM NaCl, 10 mM MgCl2·6 H2O, 1 mM CaCl2·2 H2O, 0.1% w/v BSA, 0.01% v/v Triton-X100, pH 7.4) utilizing clear flat-bottom, black polystyrene 96-well plates. The enzymes (human β-FXIIa, HFXIIAB, > 95% purity; Molecular Innovations, 2.5 nM – final concentration; human α-thrombin (active) protein, ABIN2127880, > 95% purity; antibodies-online, 0.25 nM – final concentration; human Factor Xa, HFXA, > 95% purity; Molecular Innovations, 2.5 nM – final concentration; human factor XIa, HFXIA, >95% purity; Molecular Innovations, 0.5 nM – final concentration porcine trypsin; Merck, 3.5 nM – final concentration) and the fluorogenic substrates for FXIIa: Boc-Gln-Gly-Arg-AMC (Pepta Nova, 25 µM – final concentration, Km = 167 µM); for thrombin: Boc Val Pro Arg AMC (Pepta Nova, 25 µM – final concentration, Km = 18 µM); for FXa: Boc-Ile-Glu-Gly-Arg-AMC (Pepta Nova, 25 µM – final concentration); for FXIa: Boc-Glu-(OBzl)-Ala-Arg-AMC (Pepta Nova, 25 µM – final concentration); for trypsin: Z-Gly-Gly-Arg-AMC (Sigma-Aldrich, 25 µM – final concentration) were used. The fluorogenic substrate solution was added into the wells followed by the addition of test-compounds solution, and the reaction was triggered by addition of the enzyme solution (final testing volume – 150 µL). In case of blank (substrate + buffer) and control (substrate + enzyme) wells, DMSO was added instead of the test-compounds’ solution. Fluorescence intensity was measured with Microplate Reader Mithras LB 940 (Berthold Technologies, excitation at 355 nm, emission at 460 nm) for a period of 1 h with a read every minute. The reactions were performed at 25 °C. To derive % of enzyme inhibition, endpoint RFU (single fluorescence reading after 1 h) was used. As a positive controls for thrombin, FXa, FXIIa, FXIa, and trypsin were used dabigatran (500 nM), rivaroxaban (500 nM), compound “39b” (500 nM) ([Platte et al., 2021]), Inhibitor 5t (8 µM) ([Imberg et al., 2022]), Inhibitor E (2 µM) ([Erbacher et al., 2024]), respectively. Semi-synthesized compounds were screened at 200 µM.
# [2] = Hepatic phase II glucuronidation, human microsomes; format: in vitro ADME; conditions: 50 µM, 4 h; for glucuronidation: conversion and formation of glucuronides, in words: human microsomes
# Description: (§2) Liver microsomes and cytosol were obtained for two organisms, horse and human. Fresh horse liver was purchased locally cut to pieces of ca. 50 g each and frozen in liquid nitrogen. Until further usage, the liver was stored at -80 °C. The preparation of microsomes and cytosol was carried out according to Balk et al. ([Balk et al., 1984]), and the protein content was determined by Bradford assay with bovine serum albumin as a reference ([Bradford, 1976]). Human liver microsomes and cytosol (150 Donors Ultrapool™) were provided by Corning, Inc. (Corning, New York, NY, USA). Besides assay-specific positive controls, all assays included stability controls, moreover, matrix influences were considered. For oxidation, additional non-oxidation controls were included. Each experiment was performed in duplicate. All stated concentrations are final concentration values. The test compounds (acetoxystachybotrylactam acetate-tryptophan 2a, 2b and acetoxystachybotrylactam acetate-tryptamine 3a, 3b ) were extended by the most biologically active derivative previously characterized by our group (acetoxystachybotrylactam acetate-agmatine 4 ) ([Steinert et al., 2022]).
# (§3) For phase II metabolism, potential sulfation and glucuronidation were investigated. For sulfation, the reaction mixture was pipetted as follows: first, ultrapure water was added and mixed with a 1 mM DTT solution (contains DTT, 100 mM phosphate buffer, 100 µM ascorbic acid, pH 7.4). Then, PAPS (100 µM) and the substance of interest (50 µM) were added, which was concluded by the addition of horse/human cytosol (10 mg protein/mL). For glucuronidation, first, ultrapure H2O, phosphate buffer (50 mM) and MgCl2 (5 mM) were added to the reaction vessel, followed by addition of the investigated substance (50 µM), UDPGA (5 µM), and horse/human microsomes (1 mg protein/mL), respectively. For both assays, the final volume was 100 µL which was subsequently incubated for 4 h at 37 °C in darkness. Quenching and protein precipitation was achieved by adding 200 µL of cold MeCN (-20 °C). After centrifugation (4 °C, 10 min, 15,000 rpm), 150 µL of supernatant was diluted with 850 µL H2O, which was subsequently analyzed by HPLC-qToF-HRMS. For both experiments, 50 µM 7-hydroxycumarin served as positive control.
# Chromatographic separation and mass spectrometric detection were identical to the parameters already described for the fragmentation experiments for phase I and phase II glucuronidation metabolism. For sulfation, the HPLC-qToF-HRMS was operated in negative ionization mode at -4.5 kV and otherwise identical source parameters as previously described. […]
# [3] = Hepatic phase II glucuronidation, horse microsomes; format: in vitro ADME; conditions: 50 µM, 4 h; for glucuronidation: conversion and formation of glucuronides, in words: horse microsomes
# Description: as §2
# as §3, with “Quenching and protein precipitation was achieved by adding 200 µL of cold MeCN (-20 °C).” left out, “For both experiments, 50 µM 7-hydroxycumarin served as positive control.” left out
# human β-FXIIa = molecular target: T2, human β-FXIIa (Homo sapiens, UniProt P00748); assay: Serine protease inhibition assay, fluorogenic substrate, FXIIa; format: biochemical; conditions: endpoint RFU after 1 h, 25 °C; for inhibition of FXIIa: 200 µM
# T2 construct: human β-FXIIa, HFXIIAB, > 95% purity; Molecular Innovations; purchased Molecular Innovations HFXIIAB
# Description: as §1
# human Factor Xa = molecular target: T3, human Factor Xa (Homo sapiens, UniProt P00742); assay: Serine protease inhibition assay, fluorogenic substrate, FXa; format: biochemical; conditions: 200 µM, endpoint RFU after 1 h, 25 °C
# T3 construct: human Factor Xa, HFXA, > 95% purity; Molecular Innovations; purchased Molecular Innovations HFXA
# Description: (§4) The inhibitory activity of further semi-synthesized compounds toward the coagulation factor XIIa, thrombin, FXIa, FXa, and trypsin was measured by quantifying the hydrolysis rate of the fluorogenic substrates as reported previously ([Korff et al., 2020]; [Platte et al., 2021]; [Imberg et al., 2022]). Briefly, the activity was tested in buffer (10 mM Tris-Cl, 150 mM NaCl, 10 mM MgCl2·6 H2O, 1 mM CaCl2·2 H2O, 0.1% w/v BSA, 0.01% v/v Triton-X100, pH 7.4) utilizing clear flat-bottom, black polystyrene 96-well plates. […] Fluorescence intensity was measured with Microplate Reader Mithras LB 940 (Berthold Technologies, excitation at 355 nm, emission at 460 nm) for a period of 1 h with a read every minute. […] To derive % of enzyme inhibition, endpoint RFU (single fluorescence reading after 1 h) was used. […]
# [4] = Precipitation in cell culture medium; format: physicochemical; conditions: cell culture medium (DMEM), 0.5% DMSO
# porcine trypsin = molecular target: T4, porcine trypsin (Sus scrofa, UniProt P00761); assay: Serine protease inhibition assay, fluorogenic substrate, trypsin; format: biochemical; conditions: 200 µM, endpoint RFU after 1 h, 25 °C
# T4 construct: porcine trypsin; Merck, 3.5 nM – final concentration; purchased Merck
# Description: as §4
# HepG2 = assay: Micronucleus assay (genotoxicity, OECD 487); format: cell-based, human; conditions: 1 at 25 µM, 3a at 5 and 25 µM
# Description: The genotoxic effects of the AcAc ( 1 ) and its semi-synthetic products ( 2a , 2b; 3a , 3b ) were evaluated with the micronucleus assay, performed based on OECD Test guideline 487. HepG2 were cultivated in accordance with the descriptions of Kalinina et al. ([Kalinina et al., 2018]). The cells were seeded with 300,000 cells/slide on Polysine® slides (Epredia™ Polysine™ Microscopic Adhesion Slides, FisherScientific) in quadriPERM® culture dishes (Sarstedt, Nümbrecht, Germany) and cultivated for 24 h. Then, they were incubated with the test compounds (0.5-25 µM) in serum free DMEM for 5 h. As positive control 0.6 µM mitomycin C (MMC) was used. All tested compounds were dissolved in DMSO. Cells were washed with sterile phosphate-buffered saline (PBS) and incubated with 4 µg/mL cytokinesis inhibitor cytochalasin B (Santa Cruz Biotechnology, USA) in DMEM for 19 h. Slides were washed with PBS and cold MeOH. Afterwards, cells were fixated with MeOH at -20 °C for 1 h. […] Subsequently, cells were evaluated using a fluorescence microscope (Zeiss Axio Imager 2, Oberkochen, Germany) with filters of 365/445 nm and 546/575 nm. The micronucleus rate was evaluated by counting 1,000 binucleate cells and binucleate cells with micronuclei on each slide and calculating the proportion of binucleate cells containing one or more micronuclei. […]
# [5] = Hepatic phase II sulfation, horse cytosol; format: in vitro ADME; conditions: 50 µM, 4 h
# Description: as §2
# as §3, with “Quenching and protein precipitation was achieved by adding 200 µL of cold MeCN (-20 °C).” left out, “For both experiments, 50 µM 7-hydroxycumarin served as positive control.” left out
# [6] = Hepatic phase II sulfation, human cytosol; format: in vitro ADME; conditions: 50 µM, 4 h
# Description: as §2
# as §3, with “Quenching and protein precipitation was achieved by adding 200 µL of cold MeCN (-20 °C).” left out, “For both experiments, 50 µM 7-hydroxycumarin served as positive control.” left out
# [7] = test system: lung adenocarcinoma cells (A549, CCL-185); conditions: A549, 24 h incubation, resazurin
# [8] = test system: Human liver carcinoma cells (HepG2, HB-8065); parameters: method as in Steinert et al., 2022; conditions: 50 µM, 24 h; data of Figure 8 for compound 1 from previous investigation; ref Steinert et al., 2022; cited from earlier work
# [9] = Hepatic phase I metabolism (oxidation), horse microsomes; format: in vitro ADME; conditions: 10 µM, 90 min
# Description: as §2
# (§5) The phase I metabolism was investigated utilizing a NADPH- regenerating system. […] After centrifugation (4 °C, 10 min, 15,000 rpm), 150 µL of supernatant was diluted with 850 µL H2O, which was subsequently analyzed by HPLC-qToF-HRMS. […]
# [10] = Hepatic phase I metabolism (oxidation), human microsomes; format: in vitro ADME; conditions: 10 µM, 90 min
# Description: as §2, §5
# T2 sequence (P00748 373-615 limits assumed, other chains not shown): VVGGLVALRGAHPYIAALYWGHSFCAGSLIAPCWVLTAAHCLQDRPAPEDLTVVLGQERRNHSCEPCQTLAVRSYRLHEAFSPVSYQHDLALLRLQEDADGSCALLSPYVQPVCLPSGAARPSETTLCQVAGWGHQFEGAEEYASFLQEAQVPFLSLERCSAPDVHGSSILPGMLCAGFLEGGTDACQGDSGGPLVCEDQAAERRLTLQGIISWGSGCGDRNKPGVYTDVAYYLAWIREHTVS
# T1 sequence (P03951 388-625 limits assumed): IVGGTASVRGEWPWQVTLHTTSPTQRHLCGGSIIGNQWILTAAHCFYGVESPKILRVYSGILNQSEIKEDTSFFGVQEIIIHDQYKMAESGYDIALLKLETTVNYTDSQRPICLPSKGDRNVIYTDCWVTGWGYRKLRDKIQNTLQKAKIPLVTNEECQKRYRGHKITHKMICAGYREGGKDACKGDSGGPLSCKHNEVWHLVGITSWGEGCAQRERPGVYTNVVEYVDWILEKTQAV
# T1 sequence (P03951 19-387 partner limits assumed): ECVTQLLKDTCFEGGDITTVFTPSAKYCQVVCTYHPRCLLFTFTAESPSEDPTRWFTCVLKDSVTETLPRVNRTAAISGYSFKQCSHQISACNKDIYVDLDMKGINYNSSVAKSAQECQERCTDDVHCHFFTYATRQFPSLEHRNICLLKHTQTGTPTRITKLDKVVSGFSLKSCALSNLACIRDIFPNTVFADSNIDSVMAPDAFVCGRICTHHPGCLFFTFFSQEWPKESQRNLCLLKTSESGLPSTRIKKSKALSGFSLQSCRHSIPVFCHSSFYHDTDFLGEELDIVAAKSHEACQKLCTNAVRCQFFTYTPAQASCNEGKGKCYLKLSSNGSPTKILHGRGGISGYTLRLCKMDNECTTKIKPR
# T3 sequence (P00742 235-488 limits assumed): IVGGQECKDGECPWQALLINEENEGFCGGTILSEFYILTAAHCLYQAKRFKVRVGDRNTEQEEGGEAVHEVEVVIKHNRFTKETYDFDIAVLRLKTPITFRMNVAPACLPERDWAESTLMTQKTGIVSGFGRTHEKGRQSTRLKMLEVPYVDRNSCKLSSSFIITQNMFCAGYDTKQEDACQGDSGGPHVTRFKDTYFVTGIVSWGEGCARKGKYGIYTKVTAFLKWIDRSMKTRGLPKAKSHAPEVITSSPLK
# T3 sequence (P00742 41-179 partner limits assumed): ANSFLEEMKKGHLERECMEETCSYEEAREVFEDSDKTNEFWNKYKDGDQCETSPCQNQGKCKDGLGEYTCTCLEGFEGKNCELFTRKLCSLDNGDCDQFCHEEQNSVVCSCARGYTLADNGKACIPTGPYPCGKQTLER
# T4 sequence (P00761 9-231): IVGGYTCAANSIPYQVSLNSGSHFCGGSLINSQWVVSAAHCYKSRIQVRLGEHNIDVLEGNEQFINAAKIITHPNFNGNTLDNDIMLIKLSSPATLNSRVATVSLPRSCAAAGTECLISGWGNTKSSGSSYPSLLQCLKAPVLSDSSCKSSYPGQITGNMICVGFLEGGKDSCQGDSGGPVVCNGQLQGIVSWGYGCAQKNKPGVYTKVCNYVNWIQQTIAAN
SMILES,"cytotoxicity (cell viability, T/C), in words [1]",inhibition at 200 µM (human factor XIa),"glucuronidation: conversion and formation of glucuronides, in words [2]","glucuronidation: conversion and formation of glucuronides, in words [3]",inhibition at 200 µM (human β-FXIIa),inhibition of FXa (human Factor Xa),concentration at which precipitation in cell culture medium starts [4],inhibition of trypsin (porcine trypsin),inhibition of FXIIa (human β-FXIIa),cell damage seen in the micronucleus assay (slides excluded from evaluation) (HepG2),"metabolism under sulfation conditions, in words [5]","metabolism under sulfation conditions, in words [6]","cytotoxicity (cell viability, T/C), in words [7]",HepG2 cell viability [8],"remaining parental compound, glucuronidation (phase II) ([2]; human, 37 °C, normalized to stability control, n.d. = not detected)","remaining parental compound, glucuronidation (phase II) ([3]; horse, 37 °C, normalized to stability control, n.d. = not detected)","phase I conversion, in words [9]","phase I conversion, in words [10]"
"CC(=O)OC1CC2(C)C(CCC(C)C23Cc2c(O)cc4c(c2O3)C(=O)N(C(Cc2c[nH]c3ccccc23)C(=O)O)C4)C(C)(C)C1OC(C)=O (centres unmarked) [Compound 2b, Acetoxystachybotrylactam acetate-tryptophan]",less cytotoxic,66%,more readily converted; also recorded: more available for glucuronidation than 2a,more readily converted; also recorded: more available for glucuronidation than 2a,34%,,,,,,,,,,,,,
"CC(=O)OC1CC2(C)C(CCC(C)C23Cc2c(O)cc4c(c2O3)CN(C(Cc2c[nH]c3ccccc23)C(=O)O)C4=O)C(C)(C)C1OC(C)=O (centres unmarked) [Compound 2a, Acetoxystachybotrylactam acetate-tryptophan]",more toxic,51%,,,63%,,,,,,,,,,,,,
"CC(=O)OC1CC2(C)C(CCC(C)C23Cc2c(O)cc4c(c2O3)CN(CCc2c[nH]c3ccccc23)C4=O)C(C)(C)C1OC(C)=O (centres unmarked) [Compound 3a, Acetoxystachybotrylactam acetate-tryptamine]",,9%,,,,no inhibition,≥ 10 µM,no inhibition,no inhibition,impaired cell viability even more,,,,,,,,
"CC(=O)OC1CC2(C)C(CCC(C)C23Cc2c(O)cc4c(c2O3)C(=O)N(CCc2c[nH]c3ccccc23)C4)C(C)(C)C1OC(C)=O (centres unmarked) [Compound 3b, Acetoxystachybotrylactam acetate-tryptamine]",,17%,,,,no inhibition,≥ 1 µM,no inhibition,no inhibition,,did undergo metabolism,did undergo metabolism,no impact on cell viability was observed,,,,,
"CC(=O)O[C@@H]1[C@H](OC(C)=O)C[C@@]2(C)C(CC[C@@H](C)[C@]23Cc2c(O)cc(C=O)c(C=O)c2O3)C1(C)C (some centres unmarked) [Compound 1, acetoxystachybotrydial acetate]",,,did not at all,did not at all,,,,,,left the cells visibly damaged,did undergo metabolism,did undergo metabolism,,below 50%,no 1 remaining in solution,no 1 remaining in solution,metabolized fastest,metabolized fastest
